Results on nine compounds are retold here after US9932339B2, “Helquats with heteroaromatic substituents, preparation thereof, and use thereof as G-quadruplex stabilizers” (USTAV ORGANICKE CHEMIE A BIOCHEMIE AV CR, V.V.I., priority 2014, dated 2018).

pIC50: −log10 of the molar value. Read-outs that look alike come from different tables or passages of the source.

The subject of assay [1] is G-quadruplex in promoter region of the c-myc gene (NHE III1 segment). Put plainly: Dual luciferase analysis with plasmid pGL4.10-myc (luc2) in HGC-27 cells. The class given is cell-based, human. As to conditions: for inhibition at 50 µM / activity at 50 µM: Homo sapiens; for inhibition at 50 µM: HGC-27, text summary of tab. 5 (50 μmol·l^−1), read-out: inhibition of expression of firefly luciferase as compared to control; for activity at 50 µM: read-out: luciferase expression relative to control (control = 100%). An excerpt: A dual luciferase analysis was used to determine the degree of stabilization of G-quadruplex in a promoter region of the c-myc gene on cellular level. Stabilization of G-quadruplex is expressed as the ratio of expression of two luciferases (firefly and Renilla) from the co-transfected vectors pGL4.10-myc (luc2) and pRL-TK (Renilla) into a cell line HGC-27 expressing c-myc protein. Expression of the reporter gene (firefly luciferase) from pGL4.10-myc vector is controlled by the c-myc regulatory region of a length of 860 by (in the range from −306 to +554). The inserted sequence contains NHE III1 segment which forms G-quadruplex [Yang, D. et al. (2010) Future Med Chem., 2, 619], and is responsible for as much as 90% of the transcriptional activity of the c-myc gene.
Level of expression of firefly luciferase reporter gene corresponds to promoter activity of c-myc and thus to the degree of stabilization of the G-quadruplex. The signal is normalized to Renilla luciferase expression from pRL-TK vector under the control of a constitutive viral thymidine kinase (HSV-TK) promoter. The amount of Renilla luciferase expression serves as an internal control for normalization of firefly signal on transfection efficiency in the sample. Plasmids pGL4.10-myc (luc2) and pRL-TK were propagated in Escherichia coli (DH5α strain) and purified using the Qiagen Plasmid Mini and Midi kits. Cells were cultured under standard conditions and in exponential growth phase were seeded into a white 96-well microtiter plates. Transfection was carried out using a transfection reagent X-tremeGENE HP DNA in OptiMEM media for two hours. The ratio of reporter and control vector was 1:1 and the ratio of transfection reagent to the total amount of DNA was 1:1. Two hours after transfection helquats were added in a concentration of 50 μmol·l^−1. Quantity of firefly and Renilla luciferases in the samples was determined 24 hours after transfection. Dual luciferase analysis was performed using a commercially available kit (Promega, cat. No. E1960) according to manufacturer's instructions. Luminescence was measured using a luminometer EnSpire Alpha Plate Reader. The data obtained were normalized to the Renilla luciferase signal and then the values were related to control.

For assay [2], the system named is CCRF-CEM. Put plainly: XTT cytotoxicity/proliferation assay, CCRF-CEM. The class given is cell-based. As for the experimental part:
To assess the antiproliferative effects of the tested substances in vitro, tumor cell line CCRF-CEM derived from acute lymphoblastic leukemia and normal (healthy) HUVEC endothelial cells from umbilical vein were used. Both of these cell lines were cultured under optimal conditions for their growth in the appropriate medium in plastic bottles or plastic Petri dishes of various sizes (TPP, BD Biosciences) at 37° C., 5% CO2 and 95% humidity. HUVEC cells were purchased from BD Biosciences. CCRF-CEM cell line was obtained from ATCC/LGC Standards (American Type Cell Collection).
Suspension cell line CCRF-CEM is a continuous in vitro culture of acute lymphoblastic leukemia. Cell line CCRF-CEM was grown in RPMI 1640 medium (Sigma-Aldrich, cat. No. R8758) supplemented with 2 mmol·l^−1 glutamine (Invitrogen, cat. No. 35050-038), 10% fetal bovine serum (FBS; Sigma-Aldrich, cat. No. F9665), 100 IU/ml penicillin, 100 μg/ml streptomycin (Sigma-Aldrich, cat. No. P0781). Passaging was carried out 2-3 times a week. Population doubling time of CCRF-CEM cells under the used culture conditions is 20 hours.
For testing of the sensitivity of cell lines to studied helquats XTT cytotoxicity/proliferation assay for determination of cell viability was used. This method is based on the ability of metabolically active cells to reduce the yellow tetrazolium salt XTT to orange formazan. The rate of conversion is measured as the increase in absorbance at 492 nm and is proportional to the enzymatic activity of mitochondrial dehydrogenases and thus the number of metabolically active (viable) cells. The output is the IC50 value corresponding to the concentration of the test substance that causes a decrease in the number of viable cells by half (i.e. 50% slowdown of cell division) relative to the control, untreated population. Thus it reflects the effectiveness of the test substance towards the tested cell line.
Cells in exponential growth phase were plated into 96-well microtiter plate at a concentration of 3000 cells per well. Each well contained 90 μl of cell suspension. The following day, 10 μl of 10× concentrated test substances was added. Effect of helquats has been studied in the concentration range 1-100 μmol·l^−1 (or 1, 2.5, 5, 7.5, 10; 15; 25; 50 and 100 μmol·l^−1). In addition to the part of the plate containing the mentioned dilutions of test compounds there were always two control columns present, first column with medium alone (i.e. blank) and the second column with the cells in medium without test compounds (control). Into the blank and control wells the same volume of solvent (water) as the volume of the substances was added. After 72 hours of treatment with substances the measurement of viability was performed according to the manufacturer instructions. Briefly, into each well of a 96-well microtiter plate 50 μl of the prepared working solution of XTT (detection reagent) was added and then the microtiter plate was returned to the CO2 incubator. After 2 hours, the absorbance of each well at 492 nm (reference wavelength 690 nm) was measured using a multifunctional microplate reader (Tecan Genios, Austria).
The results of determination of the viability of cancer and normal cells after treatment with different concentrations of test substances are summarized in Table 9. […] Each concentration of a helquat was tested in triplicates within one IC50 value determination. Each of these IC50 value determinations was repeated in at least three independent experiments. Values above 100 μmol·l^−1 were obtained by extrapolation of data measured in the concentration range 0-100 μmol·l^−1 of helquats.

The subject of assay [3] is HUVEC. The assay is described as follows: XTT cytotoxicity/proliferation assay, HUVEC. The format is cell-based, human. As for the experimental part:
To assess the antiproliferative effects of the tested substances in vitro, tumor cell line CCRF-CEM derived from acute lymphoblastic leukemia and normal (healthy) HUVEC endothelial cells from umbilical vein were used. Both of these cell lines were cultured under optimal conditions for their growth in the appropriate medium in plastic bottles or plastic Petri dishes of various sizes (TPP, BD Biosciences) at 37° C., 5% CO2 and 95% humidity. HUVEC cells were purchased from BD Biosciences. CCRF-CEM cell line was obtained from ATCC/LGC Standards (American Type Cell Collection). Normal human endothelial cells from the umbilical vein are adherent cells, which were grown in plastic Petri dishes coated with collagen I. The culture medium (E-STIMTM; BD Biosciences, cat. […] Then, 5 ml of complete culture media E-STIM™ was added and the cells were centrifuged (180×g, 7 minutes), resuspended and transferred in a desired amount in a new Petri dish with fresh medium. In the experiments cells between passages 3 and 8 (after thawing) were used. Population doubling time of HUVEC cells under the used culture conditions is 38 hours. For testing of the sensitivity of cell lines to studied helquats XTT cytotoxicity/proliferation assay for determination of cell viability was used. This method is based on the ability of metabolically active cells to reduce the yellow tetrazolium salt XTT to orange formazan. The rate of conversion is measured as the increase in absorbance at 492 nm and is proportional to the enzymatic activity of mitochondrial dehydrogenases and thus the number of metabolically active (viable) cells. […] Thus it reflects the effectiveness of the test substance towards the tested cell line. Cells in exponential growth phase were plated into 96-well microtiter plate at a concentration of 3000 cells per well. Each well contained 90 μl of cell suspension. The following day, 10 μl of 10× concentrated test substances was added. […] In addition to the part of the plate containing the mentioned dilutions of test compounds there were always two control columns present, first column with medium alone (i.e. blank) and the second column with the cells in medium without test compounds (control). Into the blank and control wells the same volume of solvent (water) as the volume of the substances was added. After 72 hours of treatment with substances the measurement of viability was performed according to the manufacturer instructions. Briefly, into each well of a 96-well microtiter plate 50 μl of the prepared working solution of XTT (detection reagent) was added and then the microtiter plate was returned to the CO2 incubator. After 2 hours, the absorbance of each well at 492 nm (reference wavelength 690 nm) was measured using a multifunctional microplate reader (Tecan Genios, Austria).

Setting [4] is: helquat 50 μmol · l^−1, HGC-27, firefly normalized to Renilla, 24 hours after transfection.
Setting [5] is: Homo sapiens, CCRF-CEM, 72 hours of treatment, read-out: IC50 CCRF CEM.
The mark [6] stands for this setting: Homo sapiens, CCRF-CEM, 72 hours, summary of table 9, read-out: concentrations toxic towards CCRF-CEM cells.
Setting [7] is: Homo sapiens, HUVEC, 72 hours of treatment, values above 100 μmol·l^−1 obtained by extrapolation, read-out: IC50 HUVEC.
[8] abbreviates: Homo sapiens, HUVEC, 72 hours, summary of table 9, read-out: concentrations non-toxic towards HUVEC cells.

Turning to “2,13-bis((E)-2-(5-bromothiophen-2-yl)vinyl-8,9-dimethyl-6,7,10,11-tetrahydrodipyrido[2,1-a: 1′,2′-k][2,9]phenanthroline-5,12-diium trifluoromethanesulfonate [MJB-C5-3]”, the “luciferase expression relative to control (control = 100%)” value in assay [1] (setting [4]) is given as 65%.
For the compound “19-((E)-2-(7-methyl-1H-indol-3-yl)vinyl)-6,7,8,11,12,13-hexahydropyrido[1′,2′″:1″,2″]azepino[4″,3″:5′,6′]benzo[1′,2′:3,4]azepino[1,2-a]quinoline-5,14-diium trifluoromethanesulfonate [MSC-C10-31]”, the pIC50 was 4.60 to 4.96 in assay [2] (72 hours of treatment, read-out: IC50 CCRF CEM) and not above 4.29 in assay [3] (72 hours of treatment, values above 100 μmol·l^−1 obtained by extrapolation, read-out: IC50 HUVEC).
For the compound `C(=C\c1cc(/C=C/c2ccsc2)[n+]2c(c1)-c1c(ccc3c1-c1cccc[n+]1CC3)CC2)/c1ccsc1` [HTA-C5-9, 2,4-bis((E)-2-(thiophen-3-yl)vinyl)-6,7,10,11-tetrahydrodipyrido[2,1-a:1′,2′-k][2,9]phenanthroline-5,12-diium trifluoromethanesulfonate], the inhibition at 50 µM in assay [1] is more than 10%. For the same compound, the activity at 50 µM in assay [1] (setting [4]) amounted to 85%.
The corresponding values for `Cc1c(C)c2c(c3c1CC[n+]1ccc(/C=C/c4c[nH]c5ccc(Br)cc45)cc1-3)-c1c3ccccc3cc[n+]1CC2` [MJA-C9-30, (E)-13-(2-(5-bromo-1H-indol-3-yl)vinyl)-6,7-dimethyl-4,5,8,9-tetrahydroisoquinolino[1,2-a]pyrido[1,2-k][2,9]phenanthroline-3,10-diium trifluoromethanesulfonate] are more than 40% and 55%.
Take `Cc1c(C)c2c(c3c1CC[n+]1ccc(/C=C/c4ccc5oc6ccccc6c5c4)cc1-3)-c1c3ccccc3cc[n+]1CC2` [MJA-C13-22, (E)-13-(2-(dibenzo[b,d]furan-2-yl)vinyl)-6,7-dimethyl-4,5,8,9-tetrahydroisoquinolino[1,2-a]pyrido[1,2-k][2,9]phenanthroline-3,10-diium trifluoromethanesulfonate]: the pIC50 in assay [2] (setting [5]) is not below 5.00; in assay [2] (setting [6]), more than 4.60; in assay [3] (setting [7]) it was not above 4.00; in assay [3] (setting [8]), less than 4.00.
With `C(=C\c1cc(-c2ccccc2)cs1)/c1cc[n+]2c(c1)-c1c(ccc3c1-c1c4ccccc4cc[n+]1CC3)CC2` [MSB-C11-7, (E)-13-(2-(4-phenylthiophen-2-yl)vinyl)-4,5,8,9-tetrahydroisoquinolino[1,2-a]pyrido[1,2-k][2,9]phenanthroline-3,10-diium trifluoromethanesulfonate], the pIC50 in assay [2] (setting [5]) was 4.60 to 4.96; in assay [2] (setting [6]), more than 4.60; in assay [3] (setting [7]), not above 4.00; in assay [3] (setting [8]) it was less than 4.00.
On to `C(=C\c1c[nH]c2c1ccc1ccccc12)/c1cc[n+]2c(c1)-c1c(ccc3c1-c1c4ccccc4cc[n+]1CC3)CC2` [MSB-C13-16, (E)-13-(2-(1H-benzo[g]indol-3-yl)vinyl)-4,5,8,9-tetrahydroisoquinolino[1,2-a]pyrido[1,2-k][2,9]phenanthroline-3,10-diium trifluoromethanesulfonate], for which the pIC50 is 4.60 to 4.96 in assay [2] (setting [5]) and not above 4.29 in assay [3] (setting [7]).
Consider `C(=C\c1cc2ccccc2[n+]2c1-c1c(ccc3c1-c1cccc[n+]1CCC3)CCC2)/c1ccc2[nH]ccc2c1` [MSC-C9-10, 19-((E)-2-(1H-indol-5-yl)vinyl)-6,7,8,11,12,13-hexahydropyrido[1′″,2′″:1″,2″]azepino[4″,3″:5′,6′]benzo[1′,2′:3,4]azepino[1,2-a]quinoline-5,14-diium trifluoromethanesulfonate], for which the pIC50 in assay [2] (setting [5]) was not below 5.00; in assay [2] (setting [6]) it was more than 4.60; in assay [3] (setting [7]) it was not above 4.00; in assay [3] (setting [8]) it was less than 4.00. The inhibition at 50 µM in assay [1] was more than 40%. In assay [1] (setting [4]), the activity at 50 µM stood at 56%.
Consider `Cc1c(C)c2c(c3c1CC[n+]1ccc4ccccc4c1-3)-c1cccc(/C=C/c3cccc4c3sc3ccccc34)[n+]1CC2` [VDJA-C13-20, (E)-11-(2-(dibenzo[b,d]thiophen-4-yl)vinyl)-6,7-dimethyl-4,5,8,9-tetrahydroisoquinolino[1,2-a]pyrido[1,2-k][2,9]phenanthroline-3,10-diium trifluoromethanesulfonate], for which the pIC50 in assay [2] (setting [5]) was 4.60 to 4.96; in assay [2] (setting [6]), more than 4.60; in assay [3] (setting [7]), not above 4.00; in assay [3] (setting [8]) it was less than 4.00.
